Laboratory results as given in ChEMBL document CHEMBL1149328, “Estrogen receptor ligands. II. Discovery of benzoxathiins as potent, selective estrogen receptor alpha modulators” (J Med Chem, 2004).

Assays:
Estrogen receptor [1] = molecular target: T1, Estrogen receptor (Homo sapiens, UniProt P03372); assay: In vitro binding affinity for Estrogen receptor alpha in HEK293 cells; format: cell-based
T1 sequence (P03372 whole entry): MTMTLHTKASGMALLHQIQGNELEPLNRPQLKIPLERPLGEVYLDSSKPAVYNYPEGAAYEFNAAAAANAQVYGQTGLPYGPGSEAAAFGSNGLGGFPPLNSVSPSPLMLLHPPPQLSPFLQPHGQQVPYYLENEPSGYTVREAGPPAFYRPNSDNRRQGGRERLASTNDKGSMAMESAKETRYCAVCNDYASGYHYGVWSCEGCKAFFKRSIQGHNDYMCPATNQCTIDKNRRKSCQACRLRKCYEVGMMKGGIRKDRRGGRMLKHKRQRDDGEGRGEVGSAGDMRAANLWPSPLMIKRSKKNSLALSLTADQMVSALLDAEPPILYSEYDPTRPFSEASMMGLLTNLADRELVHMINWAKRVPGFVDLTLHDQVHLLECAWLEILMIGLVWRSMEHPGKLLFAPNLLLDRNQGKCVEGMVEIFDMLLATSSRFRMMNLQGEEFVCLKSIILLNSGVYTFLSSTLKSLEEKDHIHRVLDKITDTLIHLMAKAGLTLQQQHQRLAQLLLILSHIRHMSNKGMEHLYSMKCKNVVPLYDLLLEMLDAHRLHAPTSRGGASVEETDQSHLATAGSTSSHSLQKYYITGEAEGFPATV

Estrogen receptor beta [2] = molecular target: T2, Estrogen receptor beta (Homo sapiens, UniProt Q92731)
Description: Binding affinity towards human recombinant Estrogen receptor beta was determined

Estrogen receptor [3] = molecular target: T1, Estrogen receptor
Description: Binding affinity towards human recombinant Estrogen receptor alpha was determined

[4] = molecular target: T3, Estrogen receptor (Rattus norvegicus) (UniProt P06211+Q62986); settings: at 1 mg/kg
Description: Anti-uterotrophic activity in rats after 1 mg/kg subcutaneous dose for 3 days without estradiol

[5] = molecular target: T3, Estrogen receptor (Rattus norvegicus); settings: at 1 mg/kg; remark: listed apart in the source
Description: (§1) Anti-uterotrophic activity in rats after 1 mg/kg subcutaneous dose for 3 days with estradiol

Estrogen receptor beta [6] = molecular target: T2, Estrogen receptor beta; assay: biochemical
Description: In vitro binding affinity for Estrogen receptor beta in HEK293 cells

[7] = molecular target: T3, Estrogen receptor (Rattus norvegicus); settings: Uterus, at 1 mg/kg
Description: Uterotrophic activity in rats after 1 mg/kg peroral dose for 3 days without estradiol

[8] = molecular target: T3, Estrogen receptor (Rattus norvegicus); settings: at 1 mg/kg; remark: listed apart in the source
Description: as §1

[9] = molecular target: T3, Estrogen receptor (Rattus norvegicus); settings: Uterus, at 0.3 mg/kg
Description: Uterotrophic activity in rats after 0.3 mg/kg peroral dose for 3 days with estradiol

T2 sequence (Q92731 whole entry): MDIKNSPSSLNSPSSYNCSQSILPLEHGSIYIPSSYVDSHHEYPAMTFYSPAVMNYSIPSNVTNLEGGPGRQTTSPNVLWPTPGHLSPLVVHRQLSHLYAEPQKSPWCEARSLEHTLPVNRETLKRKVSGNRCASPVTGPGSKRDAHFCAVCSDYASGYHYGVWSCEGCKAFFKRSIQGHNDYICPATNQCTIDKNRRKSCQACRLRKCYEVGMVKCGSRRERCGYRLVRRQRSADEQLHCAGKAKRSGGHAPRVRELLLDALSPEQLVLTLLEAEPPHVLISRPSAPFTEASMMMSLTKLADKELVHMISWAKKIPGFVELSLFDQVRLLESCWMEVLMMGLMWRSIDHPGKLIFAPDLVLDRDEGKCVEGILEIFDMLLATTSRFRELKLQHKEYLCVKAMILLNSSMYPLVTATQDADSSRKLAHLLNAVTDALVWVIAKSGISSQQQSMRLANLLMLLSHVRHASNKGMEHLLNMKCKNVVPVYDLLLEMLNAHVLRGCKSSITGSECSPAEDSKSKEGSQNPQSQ

Compound	IC50 (Estrogen receptor beta [2]) [µM]	IC50 (Estrogen receptor [3]) [µM]	inhibition [5] [%]	other results
Oc1ccc(C2=C(c3ccc(OCCN4CCCCC4)cc3)Oc3ccc(O)cc3S2)cc1	0.0051	0.0016	55	IC50 (Estrogen receptor [1]): 0.0051 µM; Control [4]: 45%; IC50 (Estrogen receptor beta [6]): 0.159 µM
Oc1ccc([C@@H]2Sc3cc(O)ccc3O[C@@H]2c2ccc(OCCN3CCCCC3)cc2)cc1 (racemic)	–	–	18	Control [4]: 20%
[O-][S+]1c2cc(O)ccc2O[C@H](c2ccc(OCCN3CCCCC3)cc2)[C@@H]1c1ccc(O)cc1 (stereo partly specified)	> 100	> 100	–	–
Oc1ccc([C@@H]2Sc3cc(O)ccc3O[C@H]2c2ccc(OCCN3CCCCC3)cc2)cc1 (racemic)	–	–	77	Control [4]: 5%
O=S1(=O)c2cc(O)ccc2O[C@H](c2ccc(OCCN3CCCCC3)cc2)[C@@H]1c1ccc(O)cc1	5.95	1.09	–	–
Oc1ccc([C@@H]2Sc3ccc(O)cc3O[C@@H]2c2ccc(OCCN3CCCCC3)cc2)cc1	0.045	0.0016	–	–
Oc1ccc([C@@H]2Sc3ccccc3O[C@@H]2c2ccc(OCCN3CCCCC3)cc2)cc1	0.07	0.01	–	–
Oc1ccc([C@@H]2Sc3cc(O)ccc3O[C@@H]2c2ccc(OCCN3CCCCC3)cc2)cc1 (stereo in doubt; 4-L)	–	–	16	–
Oc1ccc2c(c1)S[C@@H](c1ccccc1)[C@@H](c1ccc(OCCN3CCCCC3)cc1)O2	0.183	0.0062	–	–
Oc1ccc([C@H]2Sc3cc(O)ccc3O[C@H]2c2ccc(OCCN3CCCCC3)cc2)cc1	–	–	–	Control [7]: 9%; inhibition [8]: 0.4%; inhibition [9]: 11.4%
O=C1c2ccc(O)cc2O[C@H](c2ccc(OCCN3CCCCC3)cc2)[C@@H]1c1ccc(O)cc1	2.73	0.039	–	–
